Assay [1] relates to LPC-induced demyelinated lesions of the mouse spinal cord. In words: LPC model of focal demyelination of the mouse spinal cord. The format is in vivo.
In a further assay the target is T1, S1R (Sigma 1 Receptor) (Rattus norvegicus, UniProt Q9R0C9).
T1 construct: endogenous in cells; host or cells: CG-4 oligodendrocyte cell line (rat), lysate
The assay is described as follows: CETSA target engagement in CG-4 cell lysates. Type of assay: binding. Particulars: 100 μM, 15 minutes, 52-77° C. As to the method:
FIG. 32. […] Samples were heated at increasing temperatures (52-77° C.) and the soluble fractions were subjected to western blot. […] The immunoblot is representative of 4 biological replicates. Band quantification was performed by ImageJ software and the signal intensity of the thermostable protein was normalized to the respective intensity at 52° C. Protein amount at the other temperatures is represented as % of protein at 52° C. Data are means±the standard error of biological quadruplicates measurements and their statistical significance was evaluated by the Student's t-test (*** p<0.001; **p<0.01; *p<0.05).

In assay [2] the test system is LPC lesions of MBP-deficient shiverer spinal cords transplanted with human iPSC-derived oligodendrocytes. The assay is described as follows: Remyelination in LPC lesions of shiverer spinal cords grafted with hiOLs. Type of assay: in vivo, mouse. Particulars: gavage during 8 or 10 wkpg. From the text: FIG. 48. In vivo results of Bavisant treatment on remyelination in LPC lesions of MBP-deficient shiverer spinal cords transplanted with human iPSC-derived oligodendrocytes. […] Exogenous myelin is detected by MBP and endogenous myelin by MOG.

The mark [3] stands for this setting: 30 mg/kg daily oral gavage, 14 dpi.

T1 sequence (Q9R0C9 whole entry): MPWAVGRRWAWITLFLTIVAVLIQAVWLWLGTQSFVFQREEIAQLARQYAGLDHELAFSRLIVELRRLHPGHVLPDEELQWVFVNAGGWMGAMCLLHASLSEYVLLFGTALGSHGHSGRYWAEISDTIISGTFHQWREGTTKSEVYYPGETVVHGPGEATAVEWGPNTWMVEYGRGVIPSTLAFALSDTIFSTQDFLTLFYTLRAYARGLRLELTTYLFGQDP

Consider `O=C(c1ccc(CN2CCOCC2)cc1)N1CCN(C2CC2)CC1` [Bavisant], for which the “density of Olig2+CC1+ differentiated oligodendrocytes in LPC lesions” value in assay [1] (30 mg/kg daily oral gavage, 5 to 14 dpi, readout 14 dpi) is listed as “significantly increased the density of mature oligodendrocytes”. For the same compound, in assay [1] (setting [3]), the “% of remyelinated axons in the lesion” value is recorded as “significantly increased the number of remyelinated axons” and the “axonal density in LPC lesions” value is “not changes”. In assay [1] (control vs treated, p<0.0001), the G-ratio entry was “enhances remyelination in vivo”. For the same compound, the “thermostability of S1R (CETSA, western blot)” value on S1R (Sigma 1 Receptor) is listed as “thermostability of S1R in the presence of Bavisant”. Further, the “remyelination potential of grafted hiOLs (MBP)” value in assay [2] is given as “has the tendency to promote the remyelination potential of hiOLs”.
